Experimental data from patent publication US12636368B2, “Ionizable lipids for nucleic acid delivery” (Global Life Sciences Solutions Canada ULC, priority 2019, dated 2026).
Like-named read-outs stand apart in the source and are kept apart here.

Legend:
[1] = system: isolated primary human T cells; assay: GFP mRNA-LNP transfection of primary human T cells, flow cytometry; format: cell-based; details: for GFP Protein expression score: Human T cell: Table 8, star score, legend not given
Experimental: Reagents were from Stemcell Technologies unless otherwise stated. Tcells were isolated from a single donor. At 48 h following lipid particle mRNA exposure, the treated T cells were harvested by transferring the cell suspensions to pre-labeled 1.5 mL tubes and centrifuged 300×g at 4 degrees C. for 10 minutes. Supernatant was removed and the pellet resuspended in PBS. An amount of 0.5 ul of BD Horizon™ Fixable Viability Stain 575V™ (BD Biosciences), was added, and the mixture incubated in the dark for 10 minutes at RT. This stain binds to amines.
The cells were centrifuged again as before, then washed twice with 1 mL of stain buffer (BSA, BD Pharminigen), and the washed pellet was diluted in 100 μl BSA. The following antibodies were added to each tube of treated cells in 2 μl volumes: CD25, CD8, CD4, (PerCP-Cy™ 5.5 Mouse Anti Human CD25, BV786 Mouse Anti-Human CD8 Clone RPA-T8, APC-Cy™7 Mouse Anti-Human CD4 Clone SK3 (all from BD Pharmingen) with the exception of the controls: in the eGFP only sample and viability control, no antibody was added. In the single stain compensation tubes, only one antibody per tube was added.
The tubes were incubated at 4 degrees C. for 30 min, whereupon […] of stain buffer was added, and the cells were centrifuged again. Cells were washed once with 1 mL of stain buffer and spun down again as in step one. Cell pellets were resuspended in 1 mL of stain buffer and added to pre-labeled flow tubes with cell strainer caps (Corning Falcon). […]
GFP MFI was measured by flow cytometry 48 hours after LNP addition. T cells were isolated from whole blood using a negative isolation procedure (EasySep™ Human T Cell Isolation Kit, Stemcell Technologies). T cells were dosed with mRNA-LNPs 3 days after activation with 500 ng of encapsulated mRNA per 125,000 cells. The LNP were CT10 compositions with an N/P of 8. Transfection efficiency (upper graph) and MFI (lower graph) were measured by flow cytometry 48 h after LNP addition.

[2] = Nucleic acid encapsulation efficiency by RiboGreen assay; format: physicochemical
Experimental: Messenger RNA or plasmid NAT was diluted using sodium acetate buffer to the required concentration. Lipid nucleic acid particle samples were then prepared by running both fluids using the NanoAssemblr® Spark instrument. […] The lipid nucleic acid particles made in the instrument were immediately diluted down with 48 μL Ca and Mg free 1×PBS at pH 7.4 in the aqueous output well. These nucleic acid lipid particles were immediately collected into microcentrifuge tubes containing 96 μL of Ca and Mg free 1×PBS at pH 7.4. Encapsulation efficiency was measured by a modified Ribogreen™ assay (Quanti-iT RiboGreen™ RNA assay kit, Fisher). Observed particle attributes were generally sized from 60-200 nm for mRNA, depending on lipid composition and method of production.
(§1) Physical characteristics of lipid nanoparticle (LNP) compositions comprising compounds according to Formula (I) and that were manufactured on the NanoAssemblr® Spark and Benchtop, are shown in Tables 6 and 7 below. Size, size variation of the LNP (PDI), encapsulation efficiency, and pKa are shown. The physical characteristics of these LNP are important from a standpoint of stability, biodistribution, and cell membrane crossing. There was good encapsulation in all the formulations, with polydispersity (PDI) under 0.3. Size and PDI were measured using dynamic light scattering techniques, and nucleic acid encapsulation efficiency was calculated from a modified Quant-iT RiboGreen RNA assay.

[3] = TNS assay, surface pKa of lipid nanoparticles; format: physicochemical
Experimental: In embodiments of the invention, the experimental pKa of formulated lipid nanoparticles comprising lipids in Table 1 is calculated using the 2-(p-toluidinyl)naphthalene-6-sulfonic acid (TNS) assay. The procedure for the TNS assay is described in Example 25.
The pKa of each cationic lipid was determined in lipid nanoparticles using an assay based on fluorescence of 6-(p-Toluidino)-2-naphthalenesulfonic acid sodium salt (TNS, Sigma Aldrich), which is a fluorescent probe for the conformational state of proteins5. Empty lipid nanoparticles comprising ionizable lipid in LM02 composition in distilled water at a concentration of 3.125 mM total lipid are formulated using NanoAssemblr® Spark™, and were then was characterized for LNP quality on the Zetasizer™ using a 30× dilution with 1×PBS in the low volume cuvette. Lipid nanoparticles were further diluted 4× using distilled water to 0.781 mM total lipid. TNS was prepared as a 25 μM stock solution in distilled water. Then 6.4 μL of diluted LNP samples of 0.781 mM total lipid were mixed with 10 μL of diluted TNS to a final volume of 250 μL with buffer containing 10 mM HEPES, 10 mM MES, 10 mM NH4OAc and 130 mM NaCl where the pH ranged from 3 to 9 in 0.5 pH increments.
Samples were mixed thoroughly, and the fluorescence intensity was measured at room temperature in a BioTek™ Synergy™ H1 Hybrid Multi-Mode Monochromator™ Fluorescence Microplate Reader using excitation and emission wavelengths of 321 nm and 445 nm respectively. A sigmoidal best fit analysis was applied to the fluorescence data using GraphPad Prism™ software, and the pKa was measured as the pH at half-maximal fluorescence intensity.

[4] = LNP size and PDI by dynamic light scattering; format: physicochemical
Experimental: After the lipid particles were made as described supra, particle size (hydrodynamic diameter of the particles) was determined by Dynamic Light Scattering (DLS) using a ZetaSizer™ Nano ZS™ (Malvern Instruments, UK). He/Ne laser tuned to 633 nm wavelength was used as the light source. Data were measured from the scattered intensity data conducted in backscattering detection mode (measurement angle=173). Measurements were an average of 10 runs of two cycles each per sample. Z-Average size was reported as the particle size, and is defined as the harmonic intensity averaged particle diameter.
as §1

[5] = Table 7, EPO mRNA LNPs, LM02, N/P 6
[6] = Table 1, formulated lipid nanoparticles, TNS assay, read-out: Exp. pKa
[7] = Table 6, GFP-encoded LNPs, CT10, N/P 8

SMILES	amount of protein produced (MFIs) compared with MC3 [1]	Encapsulation Efficiency (%) [2, 5] [%]	pKa [3, 6]	pKa ([3]; Table 8, read-out: Exp.pKa)	GFP Protein expression score: Human T cell [1]	Diameter (Z. ave, nm) [4, 5] [nm]	Polydispersity Index (PDI) [4, 5]	Encapsulation Efficiency (%) [2, 7] [%]	Diameter (Z. ave, nm) [4, 7] [nm]	Polydispersity Index (PDI) [4, 7]
CC/C=C\CC1C(CC(=O)OCCC(CCCCCCCC)OC(=O)C(CCCCCC)CCCCCCCC)CCC1OC(=O)C1(C)CCN(C)CC1 (centres unmarked) [PNI-565]	better than MC3	–	–	–	–	–	–	–	–	–
CCCCC/C=C\C/C=C\CCCCCCCC(=O)O[C@@H]1[C@@H](OC(=O)CCCCCCC/C=C\C/C=C\CCCCC)CO[C@@H]1COC(=O)CCCCN(C)C (racemic) [PNI 122]	–	99.3	7.45	7.45	Toxic	102.4	0.15	–	–	–
CCCCC/C=C\C/C=C\CCCCCCCC(=O)O[C@H]1COC(COC(=O)C2CCCN(C)C2)[C@@H]1OC(=O)CCCCCCC/C=C\C/C=C\CCCCC (stereo in doubt) [PNI 575]	–	–	5.51	–	–	–	–	–	–	–
CCCCC/C=C\C/C=C\CCCCCCCC(=O)O[C@@H]1[C@@H](OC(=O)CCCCCCC/C=C\C/C=C\CCCCC)CO[C@@H]1COC(=O)CC1CCN(C)C1 (mixture of isomers) [PNI 538]	–	98.7	6.79	6.79	–	67.0	0.11	–	–	–
CCCCCCCCC1CC1CCCCCCCC(=O)O[C@@H]1[C@@H](OC(=O)CCCCCCCC2CC2CCCCCCCC)CO[C@@H]1COC(=O)C1CCN(C2CC2)CC1 (stereo in doubt) [PNI 576]	–	–	4.24	–	–	–	–	–	–	–
CCCCCCCCC1CC1CCCCCCCC(=O)O[C@@H]1[C@@H](OC(=O)CCCCCCCC2CC2CCCCCCCC)CO[C@@H]1COC(=O)CC1CCCCN1C (stereo in doubt) [PNI 578]	–	–	5.87	–	–	–	–	–	–	–
CCCCCCCCCCCCCC(=O)O[C@@H]1[C@@H](OC(=O)CCCCCCCCCCCCC)CO[C@@H]1COC(=O)CCN(C)C [PNI 344]	–	–	6.93	6.93	–	–	–	–	–	–
CCCCCCCCC(CCCCCC)C(=O)O[C@@H]1[C@@H](OC(=O)C(CCCCCC)CCCCCCCC)CO[C@@H]1COC(=O)CCN(C)C (mixture of isomers) [PNI 535]	–	82.2	4.99	4.99	Not Active	54.2	0.11	91.7	133.1	0.07
CCCCCCCCC(CCCCCC)C(=O)O[C@@H]1[C@@H](OC(=O)C(CCCCCC)CCCCCCCC)CO[C@@H]1COC(=O)C1(C)CCN(C)CC1 (stereo in doubt) [PNI 579]	–	–	5.32	–	–	–	–	–	–	–
CCCCC/C=C\C/C=C\CCCCCCCC(=O)O[C@H]1COC(COC(=O)C23CCN(CC2)CC3)[C@@H]1OC(=O)CCCCCCC/C=C\C/C=C\CCCCC (stereo in doubt) [PNI 573]	–	–	7.79	–	–	–	–	–	–	–
CCCCC/C=C\C/C=C\CCCCCCCC(=O)O[C@H]1COC(COC(=O)CN2CCN(C)CC2)[C@@H]1OC(=O)CCCCCCC/C=C\C/C=C\CCCCC (mixture of isomers) [PNI 574]	–	–	6.66	–	–	–	–	–	–	–
CCCCCCCCC(CCCCCC)C(=O)O[C@@H]1[C@@H](OC(=O)C(CCCCCC)CCCCCCCC)CO[C@@H]1COC(=O)CCCN(C)C (stereo in doubt) [PNI 580]	–	–	5.69	–	–	–	–	–	–	–
CCCCCCCCCCCCCC(=O)O[C@@H]1[C@@H](OC(=O)CCCCCCCCCCCCC)CO[C@@H]1COC(=O)CCCCN(C)C (racemic) [PNI 120]	–	–	7.71	7.7	Toxic	–	–	–	–	–
CCCCCCCCC1CC1CCCCCCCC(=O)O[C@@H]1[C@@H](OC(=O)CCCCCCCC2CC2CCCCCCCC)CO[C@@H]1COC(=O)CCN(C)C (mixture of isomers) [PNI 342]	–	97.2	6.11	6.11	–	58.2	0.04	–	–	–
CCCCC/C=C\C/C=C\CCCCCCCC(=O)O[C@@H]1[C@@H](OC(=O)CCCCCCC/C=C\C/C=C\CCCCC)CO[C@@H]1COC(=O)Cc1cn(C)cn1 (racemic) [PNI 336]	–	89.8	4.57	4.57	–	64.3	0.06	86.6	79.6	0.07
CCCCCCCCCCCC(=O)O[C@@H]1[C@@H](OC(=O)CCCCCCCCCCC)CO[C@@H]1COC(=O)CCN(C)C (racemic) [PNI 534]	–	89.4	6.42	5.97	–	75.0	0.15	49.3	107.1	0.29
CCCCCCCCC1CC1CCCCCCCC(=O)O[C@@H]1[C@@H](OC(=O)CCCCCCCC2CC2CCCCCCCC)CO[C@@H]1COC(=O)C1CCN(CC)CC1 (stereo in doubt) [PNI 577]	–	–	6.45	–	–	–	–	–	–	–
CCCCC/C=C\C/C=C\CCCCCCCC(=O)O[C@@H]1[C@@H](OC(=O)CCCCCCC/C=C\C/C=C\CCCCC)CO[C@@H]1COC(=O)CCN(C)C (racemic) [PNI 321]	–	94.9	5.62	5.62	–	60.0	0.09	92.4	68.6	0.07
CCCCCC/C=C\COC(=O)CCCCCCC(=O)O[C@@H]1[C@@H](OC(=O)CCCCCCC(=O)OC/C=C\CCCCCC)CO[C@@H]1COC(=O)CCN(C)C [PNI 532]	–	37.3	5.97	5.97	–	144.3	0.15	–	–	–
